Measured values published in US20130102595A1 (Curis, Inc., priority 2011, published 2013).

Experiments:
[1] = system: HDACs (HeLa cell nuclear extracts); assay: HDAC enzymatic activity, Biomol Color de Lys system; type: biochemical; details: 1 hour, 25° C.
Procedure: (E) an In Vitro Assay which Determines the Ability of a Test Compound to Inhibit HDAC Enzymatic Activity.
HDAC inhibitory activity was assessed using the Biomol Color de Lys system (AK-500, Biomol, Plymouth Meeting, Pa.). Briefly, HeLa cell nuclear extracts were used as a source of HDACs. Different concentrations of test compounds were serially diluted in dimethylsulphoxide (DMSO) and added to HeLa cell nuclear extracts in the presence of a colorimetric artificial substrate. Final assay condition contained 50 mM Tris/Cl, pH 8.0, 137 mM NaCl, 2.7 mM KCl and 1 mM MgCl2. Reactions were carried in room temperature (25° C.) for 1 hour before addition of developer for termination. Relative enzyme activity was measured in the WALLAC Victor II 1420 microplate reader as fluorescence intensity (excitation: 350-380 nm; emission: 440-460 nm). Data were analyzed using GraphPad Prism (v4.0a) with a sigmoidal dose response curve fitting for IC50 calculation.

[2] = biological target: T1, PI3Kα (p110α/p85α) (Homo sapiens, UniProt P42336); assay: PI3Kα ADP-Glo assay; type: biochemical; details: 20 μM PIP2, 10 μM ATP, 30 minutes
T1 construct: GST (N); made in house; host or cells: Baculovirus-infected Sf9 cells
T1 sequence (P42336 whole entry): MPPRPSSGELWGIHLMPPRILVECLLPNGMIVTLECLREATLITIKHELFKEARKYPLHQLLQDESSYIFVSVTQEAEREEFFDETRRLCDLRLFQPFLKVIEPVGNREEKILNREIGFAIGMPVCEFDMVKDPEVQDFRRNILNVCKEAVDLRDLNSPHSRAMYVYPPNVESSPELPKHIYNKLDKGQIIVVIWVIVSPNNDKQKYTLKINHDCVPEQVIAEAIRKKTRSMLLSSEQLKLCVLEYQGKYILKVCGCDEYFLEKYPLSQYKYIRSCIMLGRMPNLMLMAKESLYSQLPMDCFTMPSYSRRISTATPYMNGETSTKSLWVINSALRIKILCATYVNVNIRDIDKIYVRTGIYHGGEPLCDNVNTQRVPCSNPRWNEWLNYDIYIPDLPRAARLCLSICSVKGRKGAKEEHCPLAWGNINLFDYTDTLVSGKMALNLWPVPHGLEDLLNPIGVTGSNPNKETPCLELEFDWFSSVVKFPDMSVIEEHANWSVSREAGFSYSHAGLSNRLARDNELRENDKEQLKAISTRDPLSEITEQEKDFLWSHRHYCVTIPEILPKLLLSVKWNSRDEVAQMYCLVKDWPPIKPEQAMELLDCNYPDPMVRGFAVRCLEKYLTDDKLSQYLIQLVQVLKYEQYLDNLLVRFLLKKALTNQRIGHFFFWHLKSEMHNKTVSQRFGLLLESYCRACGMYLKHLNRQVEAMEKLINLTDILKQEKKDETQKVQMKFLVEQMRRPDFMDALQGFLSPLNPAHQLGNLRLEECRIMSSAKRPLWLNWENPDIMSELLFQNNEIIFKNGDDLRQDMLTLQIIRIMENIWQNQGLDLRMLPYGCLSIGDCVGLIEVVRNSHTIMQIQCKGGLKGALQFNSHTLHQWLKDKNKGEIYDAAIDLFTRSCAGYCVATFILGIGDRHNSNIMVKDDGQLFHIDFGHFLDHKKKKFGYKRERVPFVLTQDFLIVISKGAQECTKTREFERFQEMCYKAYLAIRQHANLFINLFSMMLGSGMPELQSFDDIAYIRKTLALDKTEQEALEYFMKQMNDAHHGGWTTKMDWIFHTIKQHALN
T1 sequence (P27986 whole entry partner): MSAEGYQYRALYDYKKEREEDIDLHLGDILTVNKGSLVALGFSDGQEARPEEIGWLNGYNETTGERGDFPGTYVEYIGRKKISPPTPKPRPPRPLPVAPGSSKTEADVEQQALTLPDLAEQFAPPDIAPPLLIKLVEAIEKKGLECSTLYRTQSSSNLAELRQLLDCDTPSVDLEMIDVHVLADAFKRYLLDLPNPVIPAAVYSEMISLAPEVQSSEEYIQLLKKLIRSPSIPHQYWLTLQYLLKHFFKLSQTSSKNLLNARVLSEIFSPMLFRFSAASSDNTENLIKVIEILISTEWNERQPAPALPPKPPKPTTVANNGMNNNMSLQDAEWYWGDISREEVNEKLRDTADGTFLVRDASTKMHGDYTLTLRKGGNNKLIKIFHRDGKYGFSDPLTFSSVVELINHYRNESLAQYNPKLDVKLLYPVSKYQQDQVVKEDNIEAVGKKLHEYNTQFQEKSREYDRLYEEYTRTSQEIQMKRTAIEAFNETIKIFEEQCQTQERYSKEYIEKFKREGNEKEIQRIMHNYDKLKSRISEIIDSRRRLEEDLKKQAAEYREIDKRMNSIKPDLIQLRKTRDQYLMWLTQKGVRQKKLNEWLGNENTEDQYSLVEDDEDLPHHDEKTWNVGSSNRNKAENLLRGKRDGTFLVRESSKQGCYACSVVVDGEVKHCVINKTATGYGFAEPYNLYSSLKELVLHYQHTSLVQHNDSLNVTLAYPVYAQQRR
Procedure: (A) an In Vitro Assay which Determines the Ability of a Test Compound to Inhibit PI3Kα.
Activity of PI3Kα was measured using ADP-Glo assay from Promega. PI3Kα, a complex of N-terminal GST-tagged recombinant full-length human p110α (GenBank, Accession No. U79143) and N-terminal His tagged recombinant full length human p85a (GenBank Accession No. XM—043865) were co-expressed in a Baculovirus infected Sf9 cell expression system. The ADP-Glo assay was performed to measure the amount of ADP generated from ATP hydrolysis coupled with PIP2 phosphorylation by the purified recombinant PI3Kα (p110α/p85α). PI3Kα was incubated with 20 μM PIP2 substrate in the reaction buffer (50 mM HEPES, pH 7.4, 150 mM NaCl, 5 mM MgCl2, 1 mM DTT, 3 uM Naorthovanadate, 10 μM ATP and 0.5% DMSO) for 30 minutes at room temperature. The ADP generated was then detected by ADP-Glo assay from Promega, a luminescent ADP detection assay. The ADP-Glo assay is performed in two steps; first, after the kinase reaction, ADP-Glo Reagent is added to terminate the kinase reaction and deplete the remaining ATP. Second, the Kinase Detection Reagent is added to simultaneously convert ADP to ATP and allow the newly synthesized ATP to be measured using a luciferase/luciferin reaction.

SMILES: CNc1ccc(-c2nc(N3CCOCC3)c3sc(NCCCCC(=O)NO)cc3n2)cn1 [Compound 228, N-Hydroxy-5-(2-(6-(methylamino)pyridin-3-yl)-4-morpholino-thieno[3,2-d]pyrimidin-6-ylamino)pentanamide]
- IC50 [1]: < 100 nM
- IC50 [2]: < 100 nM

SMILES: COc1ccc(-c2nc(N3CCOCC3)c3sc(NCCCCC(=O)NO)cc3n2)cn1 [Compound 230]
- IC50 [1]: < 100 nM
- IC50 [2]: < 100 nM

SMILES: O=C(CCCCNc1cc2nc(-c3cc(O)ccc3F)nc(N3CCOCC3)c2s1)NO [Compound 231]
- IC50 [1]: < 100 nM
- IC50 [2]: < 100 nM

SMILES: Nc1ccc(-c2nc(N3CCOCC3)c3sc(CN(CCO)c4ncc(C(=O)NO)cn4)cc3n2)cn1 [Compound 235]
- IC50 [1]: < 100 nM
- IC50 [2]: < 100 nM

SMILES: CNc1ccc(-c2nc(N3CCOCC3)c3sc(C(C)(C)N(C)c4ncc(C(=O)NO)cn4)cc3n2)cn1 [Compound 241]
- IC50 [1]: < 100 nM
- IC50 [2]: 100 to 1000 nM

SMILES: CNc1ccc(-c2nc(N3CCOCC3)c3sc(N(C)c4ncc(C(=O)NO)cn4)cc3n2)cn1 [Compound 243]
- IC50 [1]: 100 to 1000 nM
- IC50 [2]: < 100 nM

SMILES: CNc1ccc(-c2nc(N3CCOCC3)c3sc(CN(CCO)c4ncc(C(=O)NO)cn4)cc3n2)cn1 [Compound 245]
- IC50 [1]: < 100 nM
- IC50 [2]: < 100 nM

SMILES: COc1ccc(-c2nc(N3CCOCC3)c3sc(C(C)N(C)c4ncc(C(=O)NO)cn4)cc3n2)cn1 (stereo not drawn) [Compound 247, N-hydroxy-2-((1-(2-(6-methoxypyridin-3-yl)-4-morpholino-thieno[3,2-d]pyrimidin-6-yl)ethyl)(methyl)amino)pyrimidine-5-carboxamide]
- IC50 [1]: < 100 nM
- IC50 [2]: < 100 nM

SMILES: COc1ccc(-c2nc(N3CCOCC3)c3sc(C(C)(C)Nc4ncc(C(=O)NO)cn4)cc3n2)cn1 [Compound 250, N-Hydroxy-2-(2-(2-(6-methoxypyridin-3-yl)-4-morpholino-thieno[3,2-d]pyrimidin-6-yl)propan-2-ylamino)pyrimidine-5-carboxamide]
- IC50 [1]: < 100 nM
- IC50 [2]: < 100 nM

SMILES: COc1ccc(-c2nc(N3CCOCC3)c3sc(Nc4ncc(C(=O)NO)cn4)cc3n2)cn1 [Compound 253]
- IC50 [1]: 100 to 1000 nM
- IC50 [2]: < 100 nM

SMILES: CN(Cc1cc2nc(-c3ccc(O)nc3)nc(N3CCOCC3)c2s1)c1ncc(C(=O)NO)cn1 [Compound 254]
- IC50 [1]: < 100 nM
- IC50 [2]: 100 to 1000 nM

SMILES: CN(Cc1cc2nc(-c3ccc(OCc4ccccc4)nc3)nc(N3CCOCC3)c2s1)c1ncc(C(=O)NO)cn1 [Compound 260]
- IC50 [1]: < 100 nM
- IC50 [2]: > 10000 nM

SMILES: COc1ncc(-c2nc(N3CCOCC3)c3sc(C(C)(C)N(C)c4ncc(C(=O)NO)cn4)cc3n2)cn1 [Compound 264]
- IC50 [1]: < 100 nM
- IC50 [2]: 100 to 1000 nM

SMILES: CN(Cc1cc2nc(-c3cnc(OCc4ccccc4)nc3)nc(N3CCOCC3)c2s1)c1ncc(C(=O)NO)cn1 [Compound 266]
- IC50 [1]: < 100 nM
- IC50 [2]: 100 to 1000 nM

SMILES: CC(C)(Nc1ncc(C(=O)NO)cn1)c1cc2nc(-c3ccc(N)cc3)nc(N3CCOCC3)c2s1 [Compound 269, 2-(2-(2-(4-Aminophenyl)-4-morpholinothieno[3,2-d]pyrimidin-6-yl)propan-2-ylamino)-N-hydroxypyrimidine-5-carboxamide]
- IC50 [1]: < 100 nM
- IC50 [2]: 1000 to 10000 nM

SMILES: CN(c1ncc(C(=O)NO)cn1)c1cc2nc(-c3ccc(N)cc3)nc(N3CCOCC3)c2s1 [Compound 272]
- IC50 [1]: < 100 nM
- IC50 [2]: < 100 nM

SMILES: Nc1ccc(-c2nc(N3CCOCC3)c3sc(Nc4ncc(C(=O)NO)cn4)cc3n2)cc1 [Compound 273]
- IC50 [1]: 100 to 1000 nM
- IC50 [2]: < 100 nM

SMILES: Nc1ccc(-c2nc(N3CCOCC3)c3sc(CN(CCO)c4ncc(C(=O)NO)cn4)cc3n2)cc1F [Compound 277]
- IC50 [1]: < 100 nM
- IC50 [2]: < 100 nM

SMILES: CC(C)C(=O)Nc1ccc(-c2nc(N3CCOCC3)c3sc(CN(C)c4ncc(C(=O)NO)cn4)cc3n2)cc1 [Compound 286]
- IC50 [1]: < 100 nM
- IC50 [2]: 100 to 1000 nM

SMILES: CC(C)OC(=O)Nc1ccc(-c2nc(N3CCOCC3)c3sc(CN(C)c4ncc(C(=O)NO)cn4)cc3n2)cc1 [Compound 287]
- IC50 [1]: < 100 nM
- IC50 [2]: > 10000 nM

SMILES: CN(Cc1cc2nc(-c3cccc(NS(C)(=O)=O)c3)nc(N3CCOCC3)c2s1)c1ncc(C(=O)NO)cn1 [Compound 288]
- IC50 [1]: < 100 nM
- IC50 [2]: > 10000 nM

SMILES: CN(Cc1cc2nc(-c3cccc(S(=O)(=O)CCO)c3)nc(N3CCOCC3)c2s1)c1ncc(C(=O)NO)cn1 [Compound 291]
- IC50 [1]: < 100 nM
- IC50 [2]: > 10000 nM

SMILES: C/C(=N/O)c1ccc(F)c(-c2nc(N3CCOCC3)c3sc(CN(C)c4ncc(C(=O)NO)cn4)cc3n2)c1 [Compound 298]
- IC50 [1]: < 100 nM
- IC50 [2]: 100 to 1000 nM

SMILES: C/C(=N/O)c1cccc(-c2nc(N3CCOCC3)c3sc(CN(C)c4ncc(C(=O)NO)cn4)cc3n2)c1 [Compound 299]
- IC50 [1]: < 100 nM
- IC50 [2]: 100 to 1000 nM

SMILES: CC(=O)c1cccc(-c2nc(N3CCOCC3)c3sc(CN(C)c4ncc(C(=O)NO)cn4)cc3n2)c1 [Compound 300]
- IC50 [1]: < 100 nM
- IC50 [2]: 100 to 1000 nM

SMILES: CN(Cc1cc2nc(-c3cccc(C(C)(C)O)c3)nc(N3CCOCC3)c2s1)c1ncc(C(=O)NO)cn1 [Compound 302]
- IC50 [1]: < 100 nM
- IC50 [2]: > 10000 nM

SMILES: CN(Cc1cc2nc(-c3cccc(C(=O)O)c3)nc(N3CCOCC3)c2s1)c1ncc(C(=O)NO)cn1 [Compound 303]
- IC50 [1]: < 100 nM
- IC50 [2]: 100 to 1000 nM

SMILES: CN(Cc1cc2nc(-c3cccc(C(=O)OC(C)(C)C)c3)nc(N3CCOCC3)c2s1)c1ncc(C(=O)NO)cn1 [Compound 304]
- IC50 [1]: < 100 nM
- IC50 [2]: 1000 to 10000 nM

SMILES: CN(Cc1cc2nc(-c3cccc(S(N)(=O)=O)c3)nc(N3CCOCC3)c2s1)c1ncc(C(=O)NO)cn1 [Compound 305]
- IC50 [1]: < 100 nM
- IC50 [2]: 100 to 1000 nM

SMILES: CN(Cc1cc2nc(-c3cccc(CCO)c3)nc(N3CCOCC3)c2s1)c1ncc(C(=O)NO)cn1 [Compound 306]
- IC50 [1]: < 100 nM
- IC50 [2]: 100 to 1000 nM

SMILES: Nc1ccc(-c2nc(N3CCOCC3)c3sc(S(=O)(=O)NCC4CCN(c5ncc(C(=O)NO)cn5)CC4)cc3n2)cc1 [Compound 309]
- IC50 [1]: 100 to 1000 nM
- IC50 [2]: 100 to 1000 nM

SMILES: Cc1ncc(-c2nc(N3CCOCC3)c3sc(CN(CCO)c4ncc(C(=O)NO)cn4)cc3n2)s1 [Compound 312]
- IC50 [1]: < 100 nM
- IC50 [2]: 100 to 1000 nM

SMILES: CN(Cc1cc2nc(-c3cccc4[nH]c(=S)[nH]c34)nc(N3CCOCC3)c2s1)c1ncc(C(=O)NO)cn1 [Compound 315]
- IC50 [1]: < 100 nM
- IC50 [2]: < 100 nM

SMILES: CN(Cc1cc2nc(-c3cccc4[nH]c(=O)sc34)nc(N3CCOCC3)c2s1)c1ncc(C(=O)NO)cn1 [Compound 317]
- IC50 [1]: < 100 nM
- IC50 [2]: < 100 nM

SMILES: CCCc1nc2cc(/C=C/C(=O)NO)ccc2n1CCN(C)Cc1cc2nc(-c3ccc(NC)nc3)nc(N3CCOCC3)c2s1 [Compound 322]
- IC50 [1]: 100 to 1000 nM
- IC50 [2]: 100 to 1000 nM

SMILES: CCCc1nc2cc(/C=C/C(=O)NO)ccc2n1CCNCc1cc2nc(-c3ccc(NC)nc3)nc(N3CCOCC3)c2s1 [Compound 323]
- IC50 [1]: 100 to 1000 nM
- IC50 [2]: < 100 nM

SMILES: CCCc1nc2cc(/C=C/C(=O)NO)ccc2n1CCN(C)Cc1cc2nc(-c3ccc(N)cc3)nc(N3CCOCC3)c2s1 [Compound 324]
- IC50 [1]: 100 to 1000 nM
- IC50 [2]: 100 to 1000 nM

SMILES: CCCc1nc2cc(/C=C/C(=O)NO)ccc2n1CCNCc1cc2nc(-c3ccc(N)cc3)nc(N3CCOCC3)c2s1 [Compound 325]
- IC50 [1]: 100 to 1000 nM
- IC50 [2]: 1000 to 10000 nM

SMILES: Cn1c(CNCc2cc3nc(-c4ccc(N)cc4)nc(N4CCOCC4)c3s2)nc2cc(/C=C/C(=O)NO)ccc21 [Compound 326]
- IC50 [1]: 100 to 1000 nM
- IC50 [2]: 100 to 1000 nM
